Data on one molecule can be found in article PMC10988762, “Inhibition of malaria and babesiosis parasites by putative red blood cell targeting small molecules” (Frontiers in Cellular and Infection Microbiology, 2024).

Data set [1] relates to P. falciparum strain 3D7. In words: Inhibitor susceptibility dose-response assay (SYBR-Green I), P. falciparum 3D7. In kind it is cell-based, Plasmodium falciparum. The note with it: Plasmodium falciparum, 3D7; 72h, ring-stage; n=3 experiments (or 2 where indicated with *); read-out: IC50 (S.D.), P. falciparum-3D7.
Data set [2] has as its system P. falciparum strain Dd2. Put plainly: Inhibitor susceptibility dose-response assay (SYBR-Green I), P. falciparum Dd2. It counts as cell-based, Plasmodium falciparum. The settings on record: Plasmodium falciparum, DD2; 72h, ring-stage; n=3 experiments (or 2 where indicated with *); read-out: IC50 (S.D.), P. falciparum-Dd2.
Data set [3] concerns P. knowlesi YH1 strain. In words: microbe, parasite or virus in culture. It counts as cell-based, Plasmodium knowlesi. The note with it: Plasmodium knowlesi, 48 h, read-out: IC50 (S.D.), P. knowlesi.
The subject of data set [4] is BdC9 line of B. divergens. Put plainly: Inhibitor susceptibility dose-response assay (SYBR-Green I), B. divergens. It counts as cell-based, Babesia divergens. The settings on record: Babesia divergens; 72h, asynchronous; n=3 experiments (or 2 where indicated with *); read-out: IC50 (S.D.), B. divergens.
Data set [5] deals with K562. Also on record: method as in PMID 19662183. The settings on record: cellular proliferation ref PMID 19662183; read-out: Micromolar IC50 (K562); cited from earlier work.
Data set [6] concerns 293T. Also on record: method as in PMID 19662183. The note with it: cellular proliferation ref PMID 19662183; read-out: Micromolar IC50 (293T); cited from earlier work.
The nature of data set [7]: in vitro. The settings on record: human, uninfected RBCs (red blood cells), 1% hematocrit.
From the text: (§1) We analyzed samples using a volumetric MACSQuant Analyzer Flow Cytometer (Miltenyi Biotec), manually resuspending each row immediately prior to sample uptake. We recorded 10,000 total events for each condition at the instrument-defined low flow rate. We assessed all compounds in 2 separate experiments with blood from different donors. […] All samples were gated for single cell events.
Data set [8] relates to uninfected RBCs. Put plainly: Cellular phosphatidylserine exposure assay (annexin V flow cytometry).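 Note: flow cytometry recording 10,000 events per condition, gated on single cells, with the two experiments using blood from separate donors.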 The note with it: 5x P. falciparum 3D7-IC50, % of RBCs, mean of 2 experiments.
From the text: as §1

pIC50: −log10 of the molar value.

As for `Cc1ccc(NC(=O)c2ccc(CN3CC[C@H](N(C)C)C3)c(C(F)(F)F)c2)cc1Nc1nccc(-c2cncnc2)n1` [Bafetinib], the pIC50 was 5.70 in data set [1]; 5.52 in data set [2]; 5.70 in data set [3]; 4.92 in data set [4]; 8.96 in data set [5]; 8.66 in data set [6]. In data set [7], the hemolysis at 24 h, 5 x P. falciparum 3D7-IC50 turned out to be 1%. The molecule further returned a hemolysis at 48 h, 5 x P. falciparum 3D7-IC50 in data set [7] of 6%. The hemolysis at 72 h, 5 x P. falciparum 3D7-IC50 in data set [7] worked out at 4%. The “Phosphatidylserine exposure (%) 24h” value in data set [8] (24h) was determined as 2%. Moreover, in data set [8] (48h), the “Phosphatidylserine exposure (%) 48h” value is listed as 2%. The “Phosphatidylserine exposure (%) 72h” value in data set [8] (72h) is on record as 4%.
